Assays:
hCMEC/D3 cells = assay: Cytotoxicity (MTT) in blood-brain barrier endothelial cells; assay type: cell-based, human; settings: 3.5-140 μM, 4 and 24 hours
Method: (§1) Human brain microvessel endothelial cells (hCMEC/D3) and cerebral astrocytes (SC-1800) were maintained in a humidified atmosphere of 5% CO2, and the medium was refreshed every 2-3 days. hCMEC/D3 cells were cultured in endothelial basal medium-2 (EBM-2) supplemented with the EGM-2 Bullet Kit and 2% (v/v) human serum. SC-1800 were cultured in astrocytes basal medium (ABM) supplemented with AGM Bullet Kit and 3% (v/v) human serum. […] Subsequently, complete growth medium (4 mL) was added and cells were centrifuged using a C-28A centrifuge (Boeco, Hamburg, Germany) at 1,000 rpm for 5 minutes. Supernatant was discarded, and pellet was re-suspended in 1 mL of medium. The cell number was counted using Trypan Blue Exclusion Assay in the Countess II Automated Cell Counter (Thermo Scientific, Paisley, UK). hCMEC/D3 and SC-1800 cells were seeded at 20,000 cells/cm^2 in complete medium and allowed to attach overnight. […] Cell metabolic activity was measured after 4 and 24 hours using (3-(4,5)-dimethylthiazol-2-yl)-2,5-diphenyltetrazolium bromide ([…]) assay. […] Subsequently, DMSO (100 μL) was added to dissolve the formazan crystals and absorbance was measured at 570 and 690 nm. Metabolic activity was calculated by subtracting the absorbance values at 690 nm to 570 nm to remove background, and dividing the values by the control to express as a percentage (%) of the control using the equation below. […]

[1] = Enzymatic stability in rat plasma; settings: 50% (v/v) rat plasma
[2] = Release from 3D printed cellulose-sodium alginate bioinks; assay type: physicochemical; settings: PBS
Method: Peptide nanofibers were embedded in cellulose nanocrystals and sodium alginate hydrogels. Cellulose nanocrystals were synthesised by sulphuric acid degradation (45% w/v, 150 mls) of cellulose (15 g, Western Hemlock) at 50° C. over 90 minutes under stirring. Cold-deionised water was used to quench reaction and acid was removed by centrifugation (4,000 rpm, 10 minutes). Cellulose nanocrystals were dialysed (12-14 kDa for cytochrome C, Medicell Ltd) over 5 L with 6 changes over 24 hours. Resulting suspension was probe sonicated (400 watt, 23% amplitude, 10 minutes) in 50 mLs aliquots. The resulting suspension was centrifuged (4,000 rpm, 10 minutes) and supernatant was stored in the refrigerator. Cellulose nanocrystals (CNCs, 4.5% w/w, 2 g) were loaded onto a syringe attached to a three-way valve, where a syringe loaded sodium alginate (6% w/w in 4.6% glucose, 1.7 g). The CNCs were injected in the sodium alginate syringe and mixed 10 times (in each direction). Sample was collected in one syringe and a new syringe containing calcium chloride (0.1M, 0.9 mL). Sample was pushed into calcium chloride and mixed 5 times (in each direction) prior collecting the gel in one syringe and loading in cartridges. Peptide nanofibers (5 mg) were dispersed in 0.9 mL of 0.1M calcium chloride and mixed as above when needed. Release of paclitaxel loaded and TPGnRH gels in PBS (1×, 7.4, 6 mLs) was quantified as per HPLC method described previously (Example 7, Table 2). After an initial burst release, a controlled release profile is observed with gradual slow release over days. Resulting inks can be utilised for the production of nanofiber loaded implants for tumour patients.

[3] = Enzymatic stability in rat brain homogenates; settings: 50% (v/v) rat brain homogenates
Method: Fresh blood, obtained from adult male Wistar rats, was collected in sterile the 170 I.U. lithium heparin-coated tubes (Vacutainer, BD Bioscience, UK). Blood was centrifuged immediately at 2,000 g for 15 minutes (4° C.) and supernatant was collected and diluted to 50% (v/v) with PBS. Livers and brains were obtained from adult male Wistar rats, and the tissues were blotted to dryness, weighed, sliced into pieces, and homogenised with ice-cold PBS (in 2 mL of buffer g^−1 of tissue) using the glass homogeniser. Then, tissue homogenates were centrifuged at 4,300 g for 1 hour (4° C.) and the supernatants collected. Glioblastoma cell homogenates were prepared using U-87 MG cells. Cells were cultured in Eagle's Minimum Essential Medium (EMEM) supplemented with 10% (v/v) heat-inactivated fetal bovine serum (FBS), 1% (v/v) of non-essential amino acids (NEAA) and 1 mM of sodium pyruvate in T75 flasks with a surface area of 75 cm^2 and maintained in a humidified atmosphere of 5% CO2 at 37° C. Breast cancer cell homogenates were prepared using MDA-MB-231 cells. Cells were cultured in Dulbecco's Modified Eagle Medium (DMEM) supplemented with high levels of glucose (4.5 g/L), 10% (v/v) heat-inactivated fetal bovine serum (FBS), 1% (v/v) of non-essential amino acids (NEAA) and penicillin and streptomycin (500 units/mL) in T75 flasks with a surface area of 75 cm^2 and maintained in a humidified atmosphere of 5% CO2 at 37° C. Media was changed for both cell lines every 3 to 4 days. After reaching confluence, cells were washed twice with Hank's Balanced Salt Solution (HBSS) and incubated with ˜2 mL of TrypLE Enzyme at 37° C. for ˜3 minutes. Then, complete media were added, and cells were centrifuged at 1,000 rpm for 5 minutes in C-28A centrifuge (Boeco, Germany). U-87 MG or MDA-MB-231 cells (˜10×10^6 cells mL^−1) were re-suspended in ice-cold PBS, and homogenised with a 2×5 second pulses with the probe sonicator (UP200S Ultrasonic processor, SciMed, 200 watts, amplitude of 60%). Cell debris were removed by centrifugation at 2,000 rpm for 5 minutes (Jouan B4i, Thermo Scientific, Paisley, UK). Supernatant was collected and stored at −80° C. Total protein concentration in the homogenates was determined using the Bradford assay with bovine serum albumin as a standard. Diluted plasma, tissue or cell homogenates were pre-warmed during ˜30 minutes at 37° C. Peptide stock solutions (Glu-GnRH, goserelin acetate and TPGnRH, 5 mM in PBS, 500 μL) were prepared and added to the homogenate solutions (120 μL). […] Samples were vortexed for 15 minutes, centrifuged for 15 minutes at 12,000 rpm, and the supernatants were collected and analysed by RP-HPLC.

[4] = Enzymatic stability in MDA-MB-231 cell homogenates
Method: (§2) Fresh blood, obtained from adult male Wistar rats, was collected in sterile the 170 I.U. lithium heparin-coated tubes (Vacutainer, BD Bioscience, UK). Blood was centrifuged immediately at 2,000 g for 15 minutes (4° C.) and supernatant was collected and diluted to 50% (v/v) with PBS. Livers and brains were obtained from adult male Wistar rats, and the tissues were blotted to dryness, weighed, sliced into pieces, and homogenised with ice-cold PBS (in 2 mL of buffer g^−1 of tissue) using the glass homogeniser. Then, tissue homogenates were centrifuged at 4,300 g for 1 hour (4° C.) and the supernatants collected. Glioblastoma cell homogenates were prepared using U-87 MG cells. Cells were cultured in Eagle's Minimum Essential Medium (EMEM) supplemented with 10% (v/v) heat-inactivated fetal bovine serum (FBS), 1% (v/v) of non-essential amino acids (NEAA) and 1 mM of sodium pyruvate in T75 flasks with a surface area of 75 cm^2 and maintained in a humidified atmosphere of 5% CO2 at 37° C. Breast cancer cell homogenates were prepared using MDA-MB-231 cells. Cells were cultured in Dulbecco's Modified Eagle Medium (DMEM) supplemented with high levels of glucose (4.5 g/L), 10% (v/v) heat-inactivated fetal bovine serum (FBS), 1% (v/v) of non-essential amino acids (NEAA) and penicillin and streptomycin (500 units/mL) in T75 flasks with a surface area of 75 cm^2 and maintained in a humidified atmosphere of 5% CO2 at 37° C. Media was changed for both cell lines every 3 to 4 days. After reaching confluence, cells were washed twice with Hank's Balanced Salt Solution (HBSS) and incubated with ˜2 mL of TrypLE Enzyme at 37° C. for ˜3 minutes. Then, complete media were added, and cells were centrifuged at 1,000 rpm for 5 minutes in C-28A centrifuge (Boeco, Germany). U-87 MG or MDA-MB-231 cells (˜10×10^6 cells mL^−1) were re-suspended in ice-cold PBS, and homogenised with a 2×5 second pulses with the probe sonicator (UP200S Ultrasonic processor, SciMed, 200 watts, amplitude of 60%). Cell debris were removed by centrifugation at 2,000 rpm for 5 minutes (Jouan B4i, Thermo Scientific, Paisley, UK). Supernatant was collected and stored at −80° C. Total protein concentration in the homogenates was determined using the Bradford assay with bovine serum albumin as a standard. Diluted plasma, tissue or cell homogenates were pre-warmed during ˜30 minutes at 37° C. Peptide stock solutions (Glu-GnRH, goserelin acetate and TPGnRH, 5 mM in PBS, 500 μL) were prepared and added to the homogenate solutions (120 μL). PAX-loaded nanofibers prepared at a ratio of 1:7.36 [PAX:TPGnRH consisting of 3 μmol (2.56 mg mL^−1) of PAX, 22.02 μmol (31.46 mg mL^−1) of TPGnRH], as previously described, and further diluted in PBS to achieve a concentration of 5 mM of TPGnRH and 500 nM of PAX (120 μL) were added to the homogenates. At various time intervals, an aliquot was collected (80 μL) and added to ice-cold ACN (80 μL) to quench the enzymatic activity. Samples were stored at −80° C. for at least 3 hours to maximise protein precipitation. Samples were vortexed for 15 minutes, centrifuged for 15 minutes at 12,000 rpm, and the supernatants were collected and analysed by RP-HPLC.

SC-1800 cells = assay: Cytotoxicity (MTT) in cerebral astrocytes; assay type: cell-based, human; settings: 3.5-140 μM, 4 and 24 hours
Method: as §1

[5] = Critical aggregation concentration, pyrene assay; assay type: physicochemical; settings: PBS pH 7.4, 37° C., 24 hours
Method: Critical aggregation concentration (CAC) of TPGnRH was determined using pyrene ^1-4 and thioflavin T ^5, 6. The peptide solutions (3.5-700 μM) were prepared in phosphate-buffered saline (PBS, 0.01 M, pH 7.4) either by a dilution of a stock solution at 700 μM or solutions prepared at the required concentration. In the pyrene assay, pyrene was dissolved in methanol at 250 μM, dispersed into a black 96-well plate, and methanol was evaporated overnight. TPGnRH solutions were added to pyrene and incubated at 37° C. for 24 hours under stirring. Fluorescence spectra was recorded λex at 334 nm. For the thioflavin T assay, peptide solutions were added to freshly prepared thioflavin Tat 50 μM. All peptide samples were incubated during 5 minutes at room temperature and fluorescence was measured at λex at 450 nm and λem at 482 nm.

[6] = Enzymatic stability in U-87 MG cell homogenates; settings: analyte in brackets of label
Method: Fresh blood, obtained from adult male Wistar rats, was collected in sterile the 170 I.U. lithium heparin-coated tubes (Vacutainer, BD Bioscience, UK). Blood was centrifuged immediately at 2,000 g for 15 minutes (4° C.) and supernatant was collected and diluted to 50% (v/v) with PBS. Livers and brains were obtained from adult male Wistar rats, and the tissues were blotted to dryness, weighed, sliced into pieces, and homogenised with ice-cold PBS (in 2 mL of buffer g^−1 of tissue) using the glass homogeniser. Then, tissue homogenates were centrifuged at 4,300 g for 1 hour (4° C.) and the supernatants collected. Glioblastoma cell homogenates were prepared using U-87 MG cells. Cells were cultured in Eagle's Minimum Essential Medium (EMEM) supplemented with 10% (v/v) heat-inactivated fetal bovine serum (FBS), 1% (v/v) of non-essential amino acids (NEAA) and 1 mM of sodium pyruvate in T75 flasks with a surface area of 75 cm^2 and maintained in a humidified atmosphere of 5% CO2 at 37° C. Breast cancer cell homogenates were prepared using MDA-MB-231 cells. Cells were cultured in Dulbecco's Modified Eagle Medium (DMEM) supplemented with high levels of glucose (4.5 g/L), 10% (v/v) heat-inactivated fetal bovine serum (FBS), 1% (v/v) of non-essential amino acids (NEAA) and penicillin and streptomycin (500 units/mL) in T75 flasks with a surface area of 75 cm^2 and maintained in a humidified atmosphere of 5% CO2 at 37° C. Media was changed for both cell lines every 3 to 4 days. After reaching confluence, cells were washed twice with Hank's Balanced Salt Solution (HBSS) and incubated with ˜2 mL of TrypLE Enzyme at 37° C. for ˜3 minutes. Then, complete media were added, and cells were centrifuged at 1,000 rpm for 5 minutes in C-28A centrifuge (Boeco, Germany). […] Total protein concentration in the homogenates was determined using the Bradford assay with bovine serum albumin as a standard. […] Samples were vortexed for 15 minutes, centrifuged for 15 minutes at 12,000 rpm, and the supernatants were collected and analysed by RP-HPLC.

[7] = Enzymatic stability in rat liver homogenates; settings: 50% (v/v) rat liver homogenates
Method: as §2

[8] = human, MDA-MB-231 breast cancer cell homogenate

CCCCCCCCCCCCCCCC(=O)Oc1ccc(C[C@H](NC(=O)[C@H](CO)NC(=O)[C@H](Cc2c[nH]c3ccccc23)NC(=O)[C@H](Cc2c[nH]cn2)NC(=O)[C@@H](N)CCC(=O)O)C(=O)NCC(=O)N[C@@H](CC(C)C)C(=O)N[C@@H](CCCNC(=N)N)C(=O)N2CCC[C@H]2C(=O)NCC(N)=O)cc1 [TPGnRH, Tyrosine (O-Palmitoyl)-Glu-GnRH]
cytotoxicity (metabolic activity, MTT) (hCMEC/D3 cells): no cytotoxicity
k ([1]; analyte in brackets of label): 0.0937 min⁻¹
remaining at 8 h, 4.03 mM ([1]; male, Wistar, rat): > 80%
% release from 3D printed bioink ([2]; 0 minutes): 0%
% release from 3D printed bioink ([2]; 1 minutes): 15.4 ± 9.6%
% release from 3D printed bioink ([2]; 5 minutes): 15.4 ± 7.8%
% release from 3D printed bioink ([2]; 10 minutes): 16.3 ± 11.5%
% release from 3D printed bioink ([2]; 15 minutes): 15.4 ± 4.6%
% release from 3D printed bioink ([2]; 30 minutes): 16.4 ± 4.9%
% release from 3D printed bioink ([2]; 45 minutes): 14.7 ± 6.9%
% release from 3D printed bioink ([2]; 60 minutes): 19.7 ± 8.5%
% release from 3D printed bioink ([2]; 90 minutes): 20.6 ± 4.6%
% release from 3D printed bioink ([2]; 120 minutes): 21.8 ± 9.4%
% release from 3D printed bioink ([2]; 240 minutes): 20.6 ± 10.7%
% release from 3D printed bioink ([2]; 360 minutes): 22.6 ± 7.4%
% release from 3D printed bioink ([2]; 1110 minutes): 24.5 ± 7.9%
% release from 3D printed bioink ([2]; 1440 minutes): 28.5 ± 9.8%
% release from 3D printed bioink ([2]; 2760 minutes): 32.1 ± 9.7%
k ([3]; analyte in brackets of label): 0.1781 min⁻¹
remaining at 8 h, 4.03 mM ([3]; male, Wistar, rat): > 80%
Plateau ([4]; MDA-MB-231 cell homogenates): 325.8 µg/mL
k ([4]; MDA-MB-231 cell homogenates): 2.224 min⁻¹
AUC(0-t) at 4.03 mM [4, 8]: 105000 µg·h/mL
C0 at 4.03 mM [4, 8]: 710 µg/mL
cytotoxicity (metabolic activity, MTT) (SC-1800 cells): no cytotoxicity
CAC (self-assembly into aggregates) [5]: 7 µM
k [6]: 0.1781 min⁻¹
Plateau ([7]; analyte in brackets of label): 359.3 µg/mL
kα ([7]; analyte in brackets of label): 0.1678 min⁻¹
kβ ([7]; analyte in brackets of label): 0.005339 min⁻¹
remaining at 8 h, 4.03 mM ([7]; male, Wistar, rat): ~50%
